Experiment [1] deals with HepG2. Description: Inhibition of PCSK9 mRNA expression in human HepG2 cells by SYBR Green I dye-based qRT-PCR analysis. The format is functional, cell-based. For orientation: Quantitative PCR measures a nucleic acid by following its amplification.
A further experiment has as its system Mus musculus. Description: Decrease in cholesterol level in C57BL/6 mouse fed with high fat diet at 10 mg/kg, po administered daily for 5 days relative to control. The format is functional. More on the design: scale not given: the % may be the effect or the level left.
The target in experiment [2] is T1, Proprotein convertase subtilisin/kexin type 9 (Homo sapiens, UniProt Q8NBP7). As to the kind of experiment: Binding affinity to PCSK9 (unknown origin) by SPR assay. On the technique in general: In SPR one partner is held on a chip, and binding of the other changes the refractive index at the surface.
T1 sequence (Q8NBP7 31-152 limits assumed): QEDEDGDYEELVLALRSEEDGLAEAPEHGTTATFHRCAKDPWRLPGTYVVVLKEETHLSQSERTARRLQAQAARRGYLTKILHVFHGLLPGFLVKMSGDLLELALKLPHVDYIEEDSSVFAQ
T1 sequence (Q8NBP7 153-692 limits assumed): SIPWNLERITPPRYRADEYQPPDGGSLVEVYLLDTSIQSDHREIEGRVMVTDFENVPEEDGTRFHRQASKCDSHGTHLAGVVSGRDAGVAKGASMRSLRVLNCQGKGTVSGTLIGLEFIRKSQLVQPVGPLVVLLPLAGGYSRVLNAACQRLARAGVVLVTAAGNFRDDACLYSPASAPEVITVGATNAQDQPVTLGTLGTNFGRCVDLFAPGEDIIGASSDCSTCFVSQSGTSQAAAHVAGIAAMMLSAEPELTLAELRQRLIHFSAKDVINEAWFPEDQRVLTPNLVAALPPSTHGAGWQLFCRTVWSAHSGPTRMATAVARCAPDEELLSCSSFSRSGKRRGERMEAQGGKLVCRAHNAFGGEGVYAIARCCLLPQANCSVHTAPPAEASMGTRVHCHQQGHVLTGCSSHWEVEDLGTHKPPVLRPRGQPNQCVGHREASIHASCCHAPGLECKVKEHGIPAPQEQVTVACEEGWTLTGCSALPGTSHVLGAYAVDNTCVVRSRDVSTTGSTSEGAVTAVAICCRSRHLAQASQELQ
For experiment [3], the system named is HepG2. Description: Inhibition of PCSK9 mRNA expression in human HepG2 cells after 24 hrs by SYBR Green I dye-based qRT-PCR analysis. The format is functional, cell-based. As to conditions: HepG2, 24 h.
In experiment [4] the test system is HepG2. As to the kind of experiment: Inhibition of PCSK9 mRNA expression in human HepG2 cells at 20 uM after 24 hrs by qRT-PCR analysis relative to control. The format is functional. Conditions: HepG2, 24 h.
For experiment [5], the system named is Hepatocyte. As to the kind of experiment: Inhibition of PCSK9 mRNA expression in mouse primary hepatocytes at 2.5 uM after 24 hrs relative to control. The format is functional.
Experiment [6] relates to HepG2. Description: Inhibition of PCSK9 mRNA expression in human HepG2 cells after 24 hrs by qRT-PCR analysis. The format is functional, cell-based. As to conditions: HepG2, 24 h.
Experiment [7] concerns Hepatocyte. Description: Inhibition of PCSK9 mRNA expression in mouse primary hepatocytes at 2 uM after 24 hrs relative to control. The format is functional.
Experiment [8] has as its target T1, Proprotein convertase subtilisin/kexin type 9. Description: Inhibition of wild type His-tagged PCSK9 (unknown origin) binding to recombinant LDLR-AB domain (unknown origin) after 2 hrs by fluorescence assay.
Experiment [9] has the same target. Description: Inhibition of PCSK9 in human HepG2 cells assessed as increase in LDL uptake after 24 hrs by fluorescence assay. The format is cell-based.
Experiment [10] has the same target. As to the kind of experiment: Inhibition of human recombinant PCSK9 expressed in CHO-K1 cells assessed as alkaline phosphatase secretion incubated overnight and measured after 3 days by HTS assay. The format is cell-based.
Experiment [11] shares this target. Description: Inhibition of human recombinant full length ProLabel-tagged PCSK9 expressed in CHO-K1 cells incubated overnight and measured after 3 days by HTS assay. The format is cell-based.
Experiment [12] shares this target. As to the kind of experiment: Inhibition of human recombinant full length ProLabel-tagged PCSK9 expressed in CHO-K1 cells incubated overnight and measured after 3 days by chemiluminescence assay. The format is cell-based.
For a further experiment, the system named is CHO-K1. Description: Cytotoxicity against CHOK1 cells expressing human recombinant full length ProLabel-tagged PCSK9 after overnight incubation by CellTiter blue assay. The format is cell-based. As to conditions: Cricetulus griseus.
In experiment [13] the test system is Huh-7. As to the kind of experiment: Increase in LDLR protein expression in human HuH7 cells at 2 uM after 24 hrs by immunoblotting assay relative to control. The format is functional.
The subject of experiment [14] is Huh-7. As to the kind of experiment: Inhibition of PCSK9 mRNA expression in human HuH7 cells at 2 uM after 24 hrs by qRT-PCR assay relative to control. The format is functional. As to conditions: Huh-7, 24 h.
The subject of experiment [15] is Huh-7. Description: Increase in LDLR mRNA expression in human HuH7 cells at 2 uM after 24 hrs by qRT-PCR assay relative to control. The format is functional.
The target in a further experiment is 80S Ribosome. As to the kind of experiment: Binding affinity to 80S ribosome in human HuH7 cells expressing human C-terminal V5/6-His-tagged PCSK9 assessed as inhibition of PCSK9 secretion after 16 to 24 hrs by AlphaLISA method. The format is cell-based. As to conditions: huh-7. In general terms: Alpha assays give light when donor and acceptor beads are brought close together.

In the experiment with HepG2 [1], `COC(=O)c1c(C)cc(O[C@@H]2O[C@H](CO)[C@@H](O)[C@H]2O)c(OC)c1O` came in with an IC50 of 20.1 µM. As for `CCN(CC)C(=O)c1ccc(NC(=O)CSc2nnc(-c3cccs3)n2C2CC2)cc1`, in the experiment with Mus musculus, the Activity is given as 20 - 38%.

`CC(C)C[C@@H](C(=O)N[C@H](CCCCN)C(=O)N[C@H]1CCOC1=O)N1CCN(C(=O)[C@H](CS)N2C(=O)N[C@H](CC(N)=O)C2=O)CC1` had a Kd in [2] of 41.2 µM.

On to `Nc1ncnc2c1ncn2[C@@H]1O[C@H](CO)[C@@H](O)[C@H]1O` [ADENOSINE], for which, in the experiment with HepG2 [1], half-maximal inhibition (IC50) required 18.5 µM.

As for `COc1cc2c(c(OC)c1OC)-c1c(cc3c(c1OC)OCO3)C[C@@H](C)[C@@](C)(O)C2`, the IC50 in the experiment with HepG2 [3] is 1.1 µM. The compound `COc1cccc(O)c1-c1cc(=O)c2c(O)c(OC)c(OC)c(OC)c2o1` [SKULLCAPFLAVONE II] had an inhibition at 20 µM with HepG2 [4] of 42.4%. In the case of `CC(=O)Nc1ccc(C(=O)N2CCN(c3ccc(C)c(Cl)c3)CC2c2ccccc2)cc1` (configuration not stated), the Activity in the experiment on Mus musculus is 20 - 38%. In the experiment on HepG2 [3], `COc1cc([C@@H]2O[C@H](c3cc(O)c(OC)c(OC)c3)[C@@H](C)[C@@H]2C)ccc1O` returned an IC50 of 3.15 µM. In the experiment on Hepatocyte [5], `COc1cc2c(cc1-c1c(C)noc1C)ncc1[nH]c(=O)n([C@H](C)c3ccccn3)c12` came in with an inhibition at 2.5 µM of more than 90%. Consider `COc1c2c(cc3c1-c1c(cc4c(c1OC)OCO4)C[C@H](C)[C@H](C)C3)OCO2` [SCHISANDRIN C], for which the IC50 in the experiment with HepG2 [3] was 3.85 µM. With `CN1C(=O)c2cc(NC(=O)c3ccc(C(F)(F)F)cc3)ccc2OC[C@@H]2O[C@H](CC(=O)NC3Cc4ccccc4C3)CC[C@@H]21`, in the experiment with HepG2 [6], the half-maximal effective concentration (EC50) is 0.36 µM. For the compound `Cc1ccc(N2CCN(C(=O)c3ccc(NC(N)=O)cc3)C(c3ccccc3)C2)cc1Cl` (configuration not stated), the Activity in the experiment on Mus musculus was 20 - 38%. The compound `Cc1sc2c(c1C)C(c1ccccc1)=N[C@@H](CC(=O)OC(C)(C)C)c1nnc(C)n1-2` displayed an inhibition at 2 µM in the experiment with Hepatocyte [7] of more than 90%. For `Cc1cc(C(=O)C2=C(O)C(=O)N(CCCN3CCOCC3)C2c2ccncc2)ccc1OCc1ccccc1` (configuration not stated), the Activity with Mus musculus is reported as 20 - 38%. On to `CC(C)C[C@H](C(=O)N1CCN([C@@H](CC#N)C(=O)N[C@@H](CCCNC(=N)N)C(=O)N[C@H]2CCOC2=O)CC1)N1C(=O)N[C@@H](CC(=O)O)C1=O`, for which the Kd in [2] came out at 35.8 µM. Consider `Cn1cccc1-c1ccc(-c2ccc(-c3ccc(-c4ccccc4)n3C)n2C)n1C`, for which the IC50 in experiment [8] is 11.2 µM. Further, in experiment [9], the EC50 was determined as 6.04 µM. In the experiment on HepG2 [3], `CC(C)=CCc1c(O)cc(-c2cc3ccc(O)cc3o2)cc1O` [MORACIN C] yielded a half-maximal inhibitory concentration (IC50) of 16.8 µM.

Consider `CC(C)C[C@H](C(=O)N1CCN([C@@H](CC(N)=O)C(=O)N[C@@H](CCCNC(=N)N)C(=O)N[C@H]2CCOC2=O)CC1)N1C(=O)N[C@@H](CC(=O)O)C1=O`, for which the Kd in [2] stood at 24.8 µM. As for `CC(C)[C@@H](C)/C=C/[C@@H](C)[C@H]1CCC2=C3[C@@H](O)[C@@H]4O[C@@]45C[C@@H](O)CC[C@]5(C)[C@H]3CC[C@@]21C`, 8.23 µM corresponded to half-maximal inhibition with HepG2 [1] (IC50).

`COc1ccc(CCC(=O)N(c2nccc3ccccc23)[C@@H]2CCCNC2)cc1`: the IC50 in experiment [10] was more than 10 µM; in experiment [11], 4.8 µM; in experiment [12], less than 10 µM; in the experiment on CHO-K1, more than 10 µM. Regarding `O=C(Nc1ccc(-c2nc3ccccc3o2)cc1)c1ccc(NC(=O)c2cc3ccccc3o2)cc1`, in the experiment on Mus musculus, the Activity is recorded as 20 - 38%.

Consider `O=c1c(O[C@@H]2O[C@H](CO)[C@@H](O)[C@H](O)[C@H]2O)c(-c2ccc(O)c(O)c2)oc2cc(O)cc(O)c12` [ISOQUERCETIN], for which the Activity with Huh-7 [13] was 300 - 400%; in the experiment with Huh-7 [15], 60%. The inhibition at 2 µM in the experiment with Huh-7 [14] fell in the range of 20 to 30%. As to `O=C(c1ccc(-n2nnc3cccnc32)cc1)N(c1ncccc1Cl)[C@@H]1CCCNC1`, the IC50 at 80S Ribosome came to 0.3 µM.

`C/C=C(/C)C(=O)Oc1c2c(cc3c1-c1c(cc(OC)c(OC)c1OC)C[C@](C)(O)[C@@H](C)C3)OCO2` had an IC50 with HepG2 [3] of 0.36 µM. Compound `COc1cc2c(c(O)c1O)COC2=O` displayed an IC50 in the experiment on HepG2 [1] of 7.18 µM. With `COc1cc(O)cc2c1C(=O)[C@H](O)[C@@H](c1ccccc1O)O2`, in the experiment on HepG2 [4], testing at 20 µM gave an inhibition of 84.4%.

For orientation: IC50 means the point on the concentration scale where inhibition reaches its midpoint. As a reminder, the Kd is the concentration at which binding is half-saturated. As a reminder, the inhibition is the drop in the measured response relative to a control, in per cent. As usually defined, the EC50 is the concentration that produces a half-maximal response.
